The record followed here is patent US12344621B2, “CGRP antagonist compounds” (Nxera Pharma UK Limited, priority 2019, dated 2025).

For data set [1], the target named is T1, human CGRP receptor (Homo sapiens, UniProt O60894+Q16602).
T1 construct: SK-N-MC endogenously expressing the human CGRP receptor; endogenous in cells; host or cells: SK-N-MC human neuroblastoma cells
The experiment in a line: cAMP functional assay (HTRF cAMP dynamic-2) in SK-N-MC cells. As to conditions: SK-N-MC cells endogenously expressing human CGRP receptor; challenge with EC80 human CGRP (0.3 nM); functional pKb converted from pIC50 by modified Cheng-Prussoff equation. The class given is cell-based. In general terms: Time-resolved FRET reads energy transfer from a long-lived donor to a nearby acceptor.

For data set [2] the following is noted: amide bond.
For data set [3] the following is noted: amide bond. The source holds these as a separate data set.

Molecules are shown by their SMILES. Read-outs that look alike come from different tables or passages of the source.

T1 sequence (Q16602 23-461): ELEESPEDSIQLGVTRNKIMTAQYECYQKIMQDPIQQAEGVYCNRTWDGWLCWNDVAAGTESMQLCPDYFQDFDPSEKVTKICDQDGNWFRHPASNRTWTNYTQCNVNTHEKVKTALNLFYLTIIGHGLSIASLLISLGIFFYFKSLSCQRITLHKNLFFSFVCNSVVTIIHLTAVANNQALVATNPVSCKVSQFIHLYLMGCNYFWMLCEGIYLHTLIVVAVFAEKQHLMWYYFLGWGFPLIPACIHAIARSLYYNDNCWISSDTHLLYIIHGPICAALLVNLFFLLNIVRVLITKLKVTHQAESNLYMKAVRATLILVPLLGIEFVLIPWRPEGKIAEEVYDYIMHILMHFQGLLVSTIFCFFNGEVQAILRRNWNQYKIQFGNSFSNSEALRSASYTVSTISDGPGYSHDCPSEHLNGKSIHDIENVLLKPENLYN
T1 sequence (O60894 27-148): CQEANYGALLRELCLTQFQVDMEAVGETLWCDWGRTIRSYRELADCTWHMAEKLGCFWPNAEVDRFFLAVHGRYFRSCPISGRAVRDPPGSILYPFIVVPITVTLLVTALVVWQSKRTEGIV

For the molecule `Cc1cc(C[C@H]2NC(=O)c3cnc4c(c3)C[C@@]3(C4)C(=O)Nc4ncc(cc43)/C=C/COCCOCCN(C)C2=O)cc2cn[nH]c12` [Example 1-1, (1S,10R,20E)-12-methyl-10-[(7-methyl-1H-indazol-5-yl)methyl]-15,18-dioxa-5,9,12,24,26-pentazapentacyclo[20.5.2.11,4.13,7.025,28]hentriaconta-3,5,7(30),20,22(29),23,25(28)-heptaene-8,11,27-trione], in data set [1], the Kb was 0.251 nM. In data set [2] (from CNCCOCCOC/C=C/c1cnc2c(c1)[C@@]1(Cc3cc(C(=O)N[C@H](Cc4cc(C)c5[nH]ncc5c4)C(=O)O)cnc3C1)C(=O)N2, HATU, DMA, 6.6 mM, 0.25 h), this molecule gave a ring closure, yield of all isomers of 51%. For the same molecule, the ring closure, isolated yield in data set [3] (from CNCCOCCOC/C=C/c1cnc2c(c1)[C@@]1(Cc3cc(C(=O)N[C@H](Cc4cc(C)c5[nH]ncc5c4)C(=O)O)cnc3C1)C(=O)N2, 22-membered ring, HATU/DIEA, DMA, 6.6 mM, 0.25 h) was found to be 51%.

In data set [1], `Cc1cc(C[C@H]2NC(=O)c3cnc4c(c3)C[C@@]3(C4)C(=O)Nc4ncc(cc43)/C=C/CCCCCCCN(C)C2=O)cc2cn[nH]c12` [Example 1-5, (1S,10R,20E)-12-methyl-10-[(7-methyl-1H-indazol-5-yl)methyl]-5,9,12,24,26-pentazapentacyclo[20.5.2.11,4.13,7.025,28]hentriaconta-3,5,7(30),20,22(29),23,25(28)-heptaene-8,11,27-trione] gave a Kb of 0.0126 nM. In data set [2] (from CNCCCCCCC/C=C/c1cnc2c(c1)[C@@]1(Cc3cc(C(=O)N[C@H](Cc4cc(C)c5[nH]ncc5c4)C(=O)O)cnc3C1)C(=O)N2, HATU, DMF, 3.04 mM), this molecule showed a ring closure, yield of all isomers of 34.8%. In data set [3] (from CNCCCCCCC/C=C/c1cnc2c(c1)[C@@]1(Cc3cc(C(=O)N[C@H](Cc4cc(C)c5[nH]ncc5c4)C(=O)O)cnc3C1)C(=O)N2, 22-membered ring, HATU/DIEA, DMF, 3.0 mM), this molecule registered a ring closure, isolated yield of 34.8%.

`Cc1cc(C[C@H]2NC(=O)c3cnc4c(c3)C[C@@]3(C4)C(=O)Nc4ncc(cc43)/C=C/COCCCCCN(C)C2=O)cc2cn[nH]c12` [Example 1-6, (1S,10R,20E)-12-methyl-10-[(7-methyl-1H-indazol-5-yl)methyl]-18-oxa-5,9,12,24,26-pentazapentacyclo[20.5.2.11,4.13,7.025,28]hentriaconta-3,5,7(30),20,22(29),23,25(28)-heptaene-8,11,27-trione] gave a Kb in data set [1] of 0.0126 nM. Also, the ring closure, yield of all isomers in data set [2] (from CNCCCCCOC/C=C/c1cnc2c(c1)[C@@]1(Cc3cc(C(=O)N[C@H](Cc4cc(C)c5[nH]ncc5c4)C(=O)O)cnc3C1)C(=O)N2, HATU, DMF, 3.68 mM, 0.03 h) worked out at 58.9%. Further, the ring closure, isolated yield in data set [3] (from CNCCCCCOC/C=C/c1cnc2c(c1)[C@@]1(Cc3cc(C(=O)N[C@H](Cc4cc(C)c5[nH]ncc5c4)C(=O)O)cnc3C1)C(=O)N2, 22-membered ring, HATU/DIEA, DMF, 3.7 mM, 0.03 h) is 58.9%.

For the molecule `Cc1cc(C[C@H]2OC(=O)c3cnc4c(c3)C[C@@]3(C4)C(=O)Nc4ncc(cc43)/C=C/COCCOCCN(C)C2=O)cc2cn[nH]c12` [Example 4-1, (1S,10R,20E)-12-methyl-10-[(7-methyl-1H-indazol-5-yl)methyl]-9,15,18-trioxa-5,12,24,26-tetrazapentacyclo[20.5.2.11,4.13,7.025,28]hentriaconta-3,5,7(30),20,22(29),23,25(28)-heptaene-8,11,27-trione], the Kb in data set [1] was 0.2 nM. Also, the ring closure, yield of all isomers in data set [2] (from CNCCOCCOC/C=C/c1cnc2c(c1)[C@@]1(Cc3cc(C(=O)O[C@H](Cc4cc(C)c5[nH]ncc5c4)C(=O)O)cnc3C1)C(=O)N2, HATU, DMA, 5.0 mM, 0.08 h) came to 62%. The same molecule showed a ring closure, isolated yield in data set [3] (from CNCCOCCOC/C=C/c1cnc2c(c1)[C@@]1(Cc3cc(C(=O)O[C@H](Cc4cc(C)c5[nH]ncc5c4)C(=O)O)cnc3C1)C(=O)N2, 22-membered ring, HATU/DIEA, DMA, 5.0 mM, 0.08 h) of 62%.

As to `Cc1cc(C[C@H]2NC(=O)N3CCC4(CC3)OC(=O)Nc3ncc(cc34)/C=C/COCCOCCN(C)C2=O)cc2cn[nH]c12` [Example 6-1, (7R,17E)-9-methyl-7-[(7-methyl-1H-indazol-5-yl)methyl]-12,15,25-trioxa-4,6,9,21,23-pentazatetracyclo[17.6.2.21,4.022,26]nonacosa-17,19(27),20,22(26)-tetraene-5,8,24-trione], in data set [1], the Kb is 0.501 nM. For the same molecule, in data set [2] (from CNCCOCCOC/C=C/c1cnc2c(c1)C1(CCN(C(=O)N[C@H](Cc3cc(C)c4[nH]ncc4c3)C(=O)O)CC1)OC(=O)N2, PyAOP, DMF, 3.08 mM, 25.0 °C, 0.5 h), the ring closure, yield of all isomers came to 45%. The molecule further returned a ring closure, isolated yield in data set [3] (from CNCCOCCOC/C=C/c1cnc2c(c1)C1(CCN(C(=O)N[C@H](Cc3cc(C)c4[nH]ncc4c3)C(=O)O)CC1)OC(=O)N2, 21-membered ring, PyAOP/DIEA, DMF, 3.1 mM, 25.0 °C, 0.5 h) of 45%.

In data set [1], `Cc1cc(C[C@H]2OC(=O)N3CCC4(CC3)OC(=O)Nc3ncc(cc34)/C=C/COCCOCCN(C)C2=O)cc2cn[nH]c12` [Example 7-1, (7R,17E)-9-methyl-7-[(7-methyl-1H-indazol-5-yl)methyl]-6,12,15,25-tetraoxa-4,9,21,23-tetrazatetracyclo[17.6.2.21,4.022,26]nonacosa-17,19(27),20,22(26)-tetraene-5,8,24-trione] showed a Kb of 1.26 nM. For the same molecule, in data set [2] (from CNCCOCCOC/C=C/c1cnc2c(c1)C1(CCN(C(=O)O[C@H](Cc3cc(C)c4[nH]ncc4c3)C(=O)O)CC1)OC(=O)N2, PyAOP, DMF, 3.76 mM, 0.67 h), the ring closure, yield of all isomers stood at 50%. The ring closure, isolated yield in data set [3] (from CNCCOCCOC/C=C/c1cnc2c(c1)C1(CCN(C(=O)O[C@H](Cc3cc(C)c4[nH]ncc4c3)C(=O)O)CC1)OC(=O)N2, 21-membered ring, PyAOP/DIEA, DMF, 3.8 mM, 0.67 h) is 50%.
